Among the data in ChEMBL document CHEMBL1125006, “DNA-directed alkylating agents. 2. Synthesis and biological activity of platinum complexes linked to 9-anilinoacridine” (J Med Chem, 1990) are ILS, OD and IC50 values, retold here.

The term ILS denotes how much longer treated animals lived than controls. By IC50 is commonly meant the point on the concentration scale where inhibition reaches its midpoint. Low readings indicate greater potency in that assay, high ones weaker potency in that assay.

The subject of assay [1] is P388. The experiment in a line: Increase in mean survival of P388 (murine leukemia) inoculated mice; no effect. The conditions noted are these: Mus musculus. Type of assay: functional.
Assay [2] concerns P388. In words: Optimal i.p. dose in P388 (murine leukemia) inoculated mice. Type of assay: functional, Mus musculus.
The test system of assay [3] is P388. In words: In vitro inhibition of Pt resistant P388 (murine leukemia) cell growth. Type of assay: functional, cell-based, Mus musculus.
The test system of assay [4] is P388. In words: In vitro inhibition of P388 (murine leukemia) cell growth. Type of assay: functional, cell-based, Mus musculus.
The test system of assay [5] is P388. In words: Increase in mean survival of P388 (murine leukemia) inoculated mice following optimal dose. The class given is functional, organism-based. The conditions noted are these: Mus musculus.

Active and inactive are the calls of the source. The calls are words filed in the database; no cut-off is given here.

As to `COc1cccc2c(Nc3ccc(CCCC(CN)CN)cc3)c3cccc(C(=O)NCCN(C)C)c3nc12`, the ILS result with P388 [1] was “inactive”. Moreover, in the assay on P388 [2], the OD was 30 mg/kg.
For “N,1-{2-[4-(Acridin-9-ylamino)-phenyl]-ethyl}-ethane-1,2-diammino-dichloroplatinum (II) [listing 1 of 2 here]”, the IC50 turned out to be 2.4 µM in the assay with P388 [3] (p388) and 2.9 µM in the assay on P388 [4] (p388).
For CISPLATIN [listing 1 of 2 here], the increase in life span (ILS) with P388 [5] amounted to 120%. Further, the OD in the assay with P388 [2] (Mus musculus) is 5.3 mg/kg.
As to `NCC(CN)CCCCCc1ccc(Nc2c3ccccc3nc3ccccc23)cc1`, the ILS result in the assay on P388 [1] is “inactive”. Also, the half-inhibitory concentration (IC50) was 0.69 µM in the assay on P388 [3] (Mus musculus, P388) and 0.72 µM with P388 [4] (Mus musculus, P388). In the assay with P388 [2], this compound returned an OD of 13.3 mg/kg.
For `NCCNCCCCCc1ccc(Nc2c3ccccc3nc3ccccc23)cc1`, in the assay on P388 [1], the ILS entry was “inactive”. Besides, the 50% inhibitory concentration (IC50) with P388 [3] (Mus musculus, P388) worked out at 3 µM; in the assay with P388 [4] (Mus musculus, P388), 7.3 µM. The compound further yielded an OD in the assay with P388 [2] of 20 mg/kg.
With CISPLATIN [listing 2 of 2 here], the IC50 in the assay on P388 [3] (p388) stood at 5.5 µM; in the assay with P388 [4] (p388), 1.2 µM.
Take “2-{3-[4-(Acridin-9-ylamino)-phenyl]-propyl}-propane-1,3-diammino-dichloroplatinum (II) (HCl) [listing 1 of 2 here]”: in the assay on P388 [1], the ILS result was “inactive”. In the assay on P388 [2] (Mus musculus), this compound yielded an OD of 20 mg/kg.
As for “2-{4-[4-(Acridin-9-ylamino)-phenyl]-butyl}-propane-1,3-diammino-dichloroplatinum (II) (HCl) [listing 1 of 2 here]”, the ILS result with P388 [1] is “inactive”. The compound also registered an OD with P388 [2] (Mus musculus) of 30 mg/kg.
As to “Dichloro(1,3-propanediamine)platinum (II) [listing 1 of 2 here]”, the IC50 in the assay with P388 [3] (p388) was 0.38 µM; with P388 [4] (p388), 0.12 µM.
`NCC(CN)CCc1ccc(Nc2c3ccccc3nc3ccccc23)cc1`: the ILS entry in the assay with P388 [1] is “inactive”. Further, the half-maximal inhibitory concentration (IC50) in the assay with P388 [3] (Mus musculus, P388) amounted to 0.63 µM; with P388 [4] (Mus musculus, P388), 0.31 µM. Moreover, in the assay on P388 [2], the OD was determined as 30 mg/kg.
As for “DICHLORO(ETHYLENEDIAMINE) PLATINUM (II) [listing 1 of 2 here]”, the ILS in the assay on P388 [5] was found to be 70%. Moreover, the OD with P388 [2] (Mus musculus) is 13.3 mg/kg.
“DICHLORO(ETHYLENEDIAMINE) PLATINUM (II) [listing 2 of 2 here]”: the half-inhibitory concentration (IC50) in the assay on P388 [3] (p388) was 1.03 µM; in the assay with P388 [4] (p388) it was 0.3 µM.
Consider `NCC(CN)Cc1ccc(Nc2c3ccccc3nc3ccccc23)cc1`, for which, in the assay with P388 [1], the ILS result was “inactive”. Besides, the concentration for half-maximal inhibition (IC50) with P388 [3] (Mus musculus, P388) was 0.7 µM; with P388 [4] (Mus musculus, P388), 7.2 µM. Moreover, the OD with P388 [2] worked out at 45 mg/kg.
Consider `NCC(CN)CCCc1ccc(Nc2c3ccccc3nc3ccccc23)cc1`, for which, in the assay with P388 [1], the ILS entry was “inactive”. For the same compound, the concentration for half-maximal inhibition (IC50) stood at 0.12 µM with P388 [3] (Mus musculus, P388) and 0.12 µM in the assay on P388 [4] (Mus musculus, P388). The same compound showed an OD in the assay with P388 [2] of 30 mg/kg.
“9-[4-(5-Amino-4-aminomethyl-pentyl)-phenylamino]-5-methoxy-acridine-4-carboxylic acid (2-dimethylamino-ethyl)-amide (2HCl) [listing 1 of 2 here]”: the ILS with P388 [5] stood at 28%. Moreover, the OD in the assay with P388 [2] (Mus musculus) was found to be 45 mg/kg.
Regarding `NCC(CN)CCCCc1ccc(Nc2c3ccccc3nc3ccccc23)cc1`, in the assay with P388 [1], the ILS result was “inactive”. Moreover, the half-inhibitory concentration (IC50) in the assay with P388 [3] (Mus musculus, P388) was 0.68 µM; with P388 [4] (Mus musculus, P388) it was 0.72 µM. Besides, in the assay on P388 [2], the OD was found to be 20 mg/kg.
For “N,1-{2-[4-(Acridin-9-ylamino)-phenyl]-ethyl}-ethane-1,2-diammino-dichloroplatinum (II) [listing 2 of 2 here]”, the ILS entry in the assay on P388 [1] is “inactive”. Moreover, the OD with P388 [2] (Mus musculus) worked out at 13.3 mg/kg.
For the compound `NCCNCCCc1ccc(Nc2c3ccccc3nc3ccccc23)cc1`, the ILS result in the assay with P388 [1] is “inactive”. Besides, the IC50 stood at 0.7 µM with P388 [3] (Mus musculus, P388) and 3.7 µM with P388 [4] (Mus musculus, P388). The compound also registered an OD in the assay with P388 [2] of 20 mg/kg.
With `NCCNCCc1ccc(Nc2c3ccccc3nc3ccccc23)cc1`, in the assay on P388 [1], the ILS result was “inactive”. In addition, the IC50 with P388 [3] (Mus musculus, P388) turned out to be 45 µM; with P388 [4] (Mus musculus, P388) it was 12.5 µM. The compound further yielded an OD in the assay on P388 [2] of 45 mg/kg.
As to “2-{3-[4-(Acridin-9-ylamino)-phenyl]-propyl}-propane-1,3-diammino-dichloroplatinum (II) (HCl) [listing 2 of 2 here]”, the half-inhibitory concentration (IC50) in the assay with P388 [3] (p388) amounted to 1.9 µM; in the assay on P388 [4] (p388), 2.9 µM.
With “9-[4-(5-Amino-4-aminomethyl-pentyl)-phenylamino]-5-methoxy-acridine-4-carboxylic acid (2-dimethylamino-ethyl)-amide (2HCl) [listing 2 of 2 here]”, the IC50 amounted to 1 µM in the assay on P388 [3] (p388) and 1.6 µM with P388 [4] (p388).
Turning to “Dichloro(1,3-propanediamine)platinum (II) [listing 2 of 2 here]”, the ILS with P388 [5] came out at 31%. The compound further displayed an OD with P388 [2] (Mus musculus) of 8.9 mg/kg.
Regarding `NCCNCCCCc1ccc(Nc2c3ccccc3nc3ccccc23)cc1`, the ILS result with P388 [1] was “inactive”. Besides, the 50% inhibitory concentration (IC50) in the assay on P388 [3] (Mus musculus, P388) amounted to 1.3 µM; in the assay with P388 [4] (Mus musculus, P388) it was 7.8 µM. The OD in the assay on P388 [2] was found to be 65 mg/kg.
Turning to “2-{4-[4-(Acridin-9-ylamino)-phenyl]-butyl}-propane-1,3-diammino-dichloroplatinum (II) (HCl) [listing 2 of 2 here]”, the IC50 was determined as 0.9 µM in the assay on P388 [3] (p388) and 7.2 µM with P388 [4] (p388).
